Patent EP0326331B1, “Substituted quinolines and cinnolines” (Dow AgroSciences LLC, priority 1988, dated 1989)
Where two headings read alike, the source gives them in different places.

Columns and labels:
Type in all cases: in vivo
[1] = system: Botrytis cinerea (gray mold); experiment: Test 1 greenhouse foliar spray screen, gray mold on grape berries; conditions: for GRAY MOLD: disease control rating, spray on grape berries, 400 ppm (+++ at 100 ppm); for pest or weed control at 400 ppm: Botrytis cinerea, foliar, Test 1, spray on grape berries, disease control rating at 400 ppm / 100 ppm
[2] = system: melon aphids (Aphis gossypii Glover); experiment: Mite/insect screen, MA; conditions: Aphis gossypii, percent mortality, read-out: MA RESULTS %
Summary of the method: (§1)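 Compounds dissolved in 50:50 acetone/alcohol containing sulfonate/nonionic emulsifier blends, then diluted with water to the indicated concentrations. Leaves sprayed on both surfaces to runoff at 10 psi and dried one hour. Percent mortality scored after standard exposure periods.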

[3] = system: Erysiphe graminis tritici (powdery mildew); experiment: Test 1 greenhouse foliar spray screen, powdery mildew on wheat; conditions: for POWD MDEW: disease control rating, foliar spray on wheat, 400 ppm (+++ at 100 ppm); for pest or weed control at 400 ppm: Blumeria graminis, foliar, Test 1, foliar spray on wheat, disease control rating at 400 ppm / 100 ppm, read-out: POWD MDEW
[4] = system: southern armyworm (Spodopetra eridania Cramer); experiment: Mite/insect screen, SAW; conditions: Spodoptera eridania, percent mortality, read-out: SAW RESULTS %
Summary of the method: as §1

[5] = system: Twospotted spider mites (Tetranychus urticae Koch); experiment: Mite/insect screen, SM; conditions: Tetranychus urticae, percent mortality, read-out: SM RESULTS %
Summary of the method: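 Activity is expressed as percent mortality at the indicated spray concentrations. Plants are sprayed to runoff on upper and lower leaf surfaces with aqueous dilutions of an acetone/alcohol emulsifiable formulation, then dried for one hour.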

[6] = system: Pyricularia oryzae (rice blast); experiment: whole plant or invertebrate; conditions: for RICE BLAST: disease control rating, foliar spray on rice, 400 ppm (+++ at 100 ppm); for pest or weed control at 400 ppm: Pyricularia oryzae, foliar, read-out: RICE BLAST, Test 1, foliar spray on rice, disease control rating at 400 ppm / 100 ppm
corn rootworm = experiment: Mite/insect screen, CRW; conditions: percent mortality, read-out: CRW RESULTS %
Summary of the method: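 Compounds were dissolved in 50:50 acetone/alcohol containing sulfonate/nonionic emulsifier blends (23 g/L plus 13 g/L), then diluted with water to the test concentrations. Percent mortality was scored after standard exposure periods.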

[7] = system: Pseudoperonospora cubensis (downy mildew); experiment: Test 1 greenhouse foliar spray screen, downy mildew on squash; conditions: for DOWN MDEW: disease control rating, foliar spray on squash, 400 ppm (+++ at 100 ppm); for pest or weed control at 400 ppm: Pseudoperonospora cubensis, foliar, Test 1, foliar spray on squash, disease control rating at 400 ppm / 100 ppm, read-out: DOWN MDEW
[8] = system: Puccinia recondita tritici (leaf rust); experiment: Test 1 greenhouse foliar spray screen, leaf rust on wheat; conditions: for LEAF RUST: disease control rating, foliar spray on wheat, 400 ppm (+++ at 100 ppm); for pest or weed control at 400 ppm: Puccinia recondita, foliar, Test 1, foliar spray on wheat, disease control rating at 400 ppm / 100 ppm
[9] = foliar, rate 200 ppm, foliar spray on squash
[10] = foliar, rate 400 ppm, foliar spray on squash

SMILES	GRAY MOLD [1]	POWD MDEW [3]	RICE BLAST [6]	DOWN MDEW [7]	LEAF RUST [8]	mortality at 200 ppm [2, 9] [%]	mortality at 400 ppm [2, 10] [%]	mortality at 200 ppm [4, 9] [%]	mortality at 400 ppm [4, 10] [%]	mortality at 200 ppm [5, 9] [%]	mortality at 400 ppm [5, 10] [%]	mortality at 12 ppm (corn rootworm; CRW rate 12.00 ppm) [%]	mortality at 24 ppm (corn rootworm; CRW rate 24.00 ppm) [%]	pest or weed control at 400 ppm [1] [%]	pest or weed control at 400 ppm [3] [%]	pest or weed control at 400 ppm [6] [%]	pest or weed control at 400 ppm [7] [%]	pest or weed control at 400 ppm [8] [%]	further results
CC(=O)N(CCC1=CCCCC1)c1ccnc2c(C)ccc(C)c12 [Example 160, N-[2-(1-cyclohexenyl)ethyl]-N-(5,8-dimethyl-4-quinolinyl)acetamide]	- (0-19% control at 400 ppm)	- (0-19% control at 400 ppm)	+ (20-89% control at 400 ppm)	- (0-19% control at 400 ppm)	- (0-19% control at 400 ppm)	–	–	–	–	–	–	–	–	–	–	–	–	–	mortality at 200 ppm ([2]; SAW, SM & MA RATE 200 PPM): 0%; mortality at 400 ppm ([2]; SAW, SM & MA RATE 400 PPM): 0%; mortality at 200 ppm ([4]; SAW, SM & MA RATE 200 PPM): 0%; mortality at 400 ppm ([4]; SAW, SM & MA RATE 400 PPM): 0%; mortality at 200 ppm ([5]; SAW, SM & MA RATE 200 PPM): 0%; mortality at 400 ppm ([5]; SAW, SM & MA RATE 400 PPM): 0%; mortality at 12 ppm (corn rootworm; CRW RATE 12.00 PPM): 0%; mortality at 24 ppm (corn rootworm; CRW RATE 24.00 PPM): 0%
CC(=O)N(CCC1CCCCC1)c1ccnc2c(F)cccc12 [Example 161, N-(2-cyclohexylethyl)-N-(8-fluoro-4-quinolinyl)acetamide]	- (0-19% control at 400 ppm)	+ (20-89% control at 400 ppm)	+ (20-89% control at 400 ppm)	+ (20-89% control at 400 ppm)	- (0-19% control at 400 ppm)	–	–	–	–	–	–	–	–	–	–	–	–	–	mortality at 200 ppm ([2]; SAW, SM & MA RATE 200 PPM): 0%; mortality at 400 ppm ([2]; SAW, SM & MA RATE 400 PPM): 80%; mortality at 200 ppm ([4]; SAW, SM & MA RATE 200 PPM): 0%; mortality at 400 ppm ([4]; SAW, SM & MA RATE 400 PPM): 0%; mortality at 200 ppm ([5]; SAW, SM & MA RATE 200 PPM): 0%; mortality at 400 ppm ([5]; SAW, SM & MA RATE 400 PPM): 0%; mortality at 12 ppm (corn rootworm; CRW RATE 12.00 PPM): 0%; mortality at 24 ppm (corn rootworm; CRW RATE 24.00 PPM): 40%
FC(F)(F)c1ccc2c(NCCC3=CCCCC3)ccnc2c1 [Example 167, N-[2-(1-cyclohexenyl)ethyl]-7-(trifluoromethyl)-4-quinolinamine]	- (0-19% control at 400 ppm)	+ (20-89% control at 400 ppm)	- (0-19% control at 400 ppm)	+ (20-89% control at 400 ppm)	- (0-19% control at 400 ppm)	0	0	0	0	0	0	0	0	–	–	–	–	–	–
Fc1cccc2c(NCCC3CCCCC3)ccnc12 [Example 177, N-(2-cyclohexylethyl)-8-fluoro-4-quinolinamine]	- (0-19% control at 400 ppm)	++ (90-100% control at 400 ppm)	+++ (90-100% control at 100 ppm)	+++ (90-100% control at 100 ppm)	+++ (90-100% control at 100 ppm)	0	0	0	0	0	0	0	100	–	–	–	–	–	–
Cc1cc(C)c2nccc(NCCC3CCCCC3)c2c1 [Example 178, N-(2-cyclohexylethyl)-6,8-dimethyl-4-quinolinamine]	- (0-19% control at 400 ppm)	- (0-19% control at 400 ppm)	+ (20-89% control at 400 ppm)	+++ (90-100% control at 100 ppm)	++ (90-100% control at 400 ppm)	0	0	0	0	0	0	0	0	–	–	–	–	–	–
CC(=O)N(CCc1ccc(Cl)cc1)c1cc(N(CCc2ccc(Cl)cc2)C(C)=O)c2ccccc2n1 [Example 182, N,N'-(2,4-quinolinediyl)bis[N-[2-(4-chlorophenyl)ethyl]acetamide]]	- (0-19% control at 400 ppm)	- (0-19% control at 400 ppm)	+ (20-89% control at 400 ppm)	- (0-19% control at 400 ppm)	- (0-19% control at 400 ppm)	0	0	0	0	0	0	0	0	–	–	–	–	–	–
Clc1ccc(CCNc2ccc3nccc(NCCc4ccc(Cl)cc4)c3c2)cc1 [Example 185, N,N'-bis[2-(4-chlorophenyl)ethyl]-4,6-quinolinediamine]	- (0-19% control at 400 ppm)	- (0-19% control at 400 ppm)	+ (20-89% control at 400 ppm)	+ (20-89% control at 400 ppm)	+ (20-89% control at 400 ppm)	0	0	0	0	0	0	0	0	–	–	–	–	–	–
Fc1cccc2c(NCCc3ccc(Cl)cc3)cc(NCCc3ccc(Cl)cc3)nc12 [Example 188, N,N'-bis[2-(4-chlorophenyl)ethyl]-8-fluoro-2,4-quinolinediamine]	–	–	–	–	–	–	0	–	0	–	0	–	0	0 to 19	0 to 19	90 to 100	90 to 100	20 to 89	–
CC(=O)N(CCc1ccc(Cl)cc1)c1ccc2c(N(CCc3ccc(Cl)cc3)C(C)=O)ccnc2c1 [Example 191, N,N'-(4,7-quinolinediyl)bis[N-[2-(4-chlorophenyl)ethyl]acetamide]]	–	–	–	–	–	0	0	0	0	0	0	0	0	0 to 19	0 to 19	20 to 89	0 to 19	90 to 100	–
Cc1ccc(CCOc2cc(Cl)nc3c(F)cccc23)cc1 [Example 193, 2-chloro-8-fluoro-4-[2-(4-methylphenyl)ethoxy]quinoline]	–	–	–	–	–	0	0	0	0	0	0	0	0	0 to 19	0 to 19	0 to 19	0 to 19	20 to 89	–
Clc1cc(Cl)c2c(OCCc3ccc(-c4ccccc4)cc3)ccnc2c1 [Example 194, 5,7-dichloro-4-[2-(1,1'-biphenyl)-4-ylethoxy]quinoline]	–	–	–	–	–	0	0	0	0	0	0	0	0	0 to 19	20 to 89	0 to 19	0 to 19	0 to 19	–
